Data set [1] concerns NIH3T3 mouse embryonic fibroblasts. Put plainly: Mammalian cytotoxicity, CellTiter 96 AQueous One Solution assay. Type of data set: cell-based. To be noted: NIH3T3 cells, 24 hr, highest tested concentration 16 μg/ml. On the procedure:
Mammalian cytotoxicity assays were performed using NIH3T3 mouse embryonic fibroblasts (ATCC CRL-1658), and cytotoxicity was measured using the CellTiter 96® AQueous One Solution Cell Proliferation Assay (Promega, Madison, Wis., Cat: G3582), according to the manufacturer's recommendations.
100× working stocks of 2-fold serial dilution of NOVO4 in DMSO were created in a 96 well format. The highest concentration of the 100× concentration (working stock) was prepared by adding […] of the stock solution of NOVO4 (10 mg/ml in DMSO) for every 0.68 μl of DMSO to well A02. 0.5 μl of this 100× stock was added for every 0.5 μl of DMSO in well A03 to create a total of 7 two-fold serial dilution series, from 1600 μg/ml to 25 μg/ml (from highest in well A02 to A08,). A DMSO control was also included (wells in column A01, and A12). […]
The plate was visually inspected under a dissecting microscope, and the absorbance at 490 nm was read using a Spectramax Plus Spectrophotometer, with wells A12, and B12 reserved as blanks The signal of compound alone (well A11) was verified not to contribute to the absorbance at this wavelength. Next, 20 μl of the CellTiter 96® AQueous One Solution Cell Proliferation Assay (Promega, Madison, Wis., Cat: G3582) was added to each well, and the plate was read after 3 hr of incubation. […]

Data set [2] deals with different bacterial test strains. Put plainly: Effect of serum or BSA supplement on MIC of NOVO4. Type of data set: cell-based. On the procedure:
The lowest concentration of NOVO4 without any cell growth is the MIC (Minimal Inhibitory Concentration) of NOVO4. The data is the MIC of NOVO4 on different bacterial test strains in the presence of Mueller Hinton broth (MHB) or with MHB supplemented with either […].
These studies follow the procedure for determining the MIC described above in Example 5. Briefly, two-fold serial dilution of the NOVO4 compound are added to the test cells of interest, MRSA and VRE, and the lowest concentration of compound that inhibits growth after a period of incubation is considered to be the MIC. To determine the effect of serum on the activity of NOVO4, MIC in the absence of serum is compared to MIC in media supplemented with 10% calf bovine serum (ATCC 30-2030).

Data set [3] in a line: Single-dose acute toxicity in mice. Particulars: mouse, in vivo; female CD-1 mice, SC, 3 doses of 50 mg/kg 2 hours apart in 0.5% methylocellulose, followed for 2 days. Here is the method: Single-dose, acute toxicity experiments were carried out in female CD-1 mice. The animals were acclimated for 3 days and were 7 weeks old at the start of the experiments. Their weight ranged from 16 to 24 g.
In order to determine the maximum tolerated dose, a group of 3 mice was dosed with a total of 4.9 mg/kg of NOVO4 (10% DMSO in saline) delivered as two separate IV doses, 2 hr apart. In addition, another 3 mice were dosed subcutaneously with a total of 150 mg/kg of NOVO4 in 0.5% methylocellulose, delivered as 3 doses of 50 mg/kg each, 2 hours apart. The mice were then followed for 2 days.
This indicated a very high MTD of >150 mg/kg for NOVO4.

The next data set has as its system human red blood cells. The data set is classed as cell-based. Here is the method: The effect of NOVO4 on the hemolysis of human red blood cells was also tested. A total of 10 ml of expired packed red blood cells from the blood bank was gently added to 80 ml of PBS (Phosphate buffered saline), and pelleted at 1000 g for 5 minutes at 4° C. The upper phase and buffy layer (white blood cells) were removed. The cells are repeatedly washed by gentle mixing with PBS, and centrifugation until the upper phase is clear. In the last wash, 40 ml of 1× PBS with 0.05% BSA was added to half of the red blood cells while 40 ml of 1× PBS without BSA was added to the other half. The upper phase of the last wash was removed to leave a total volume of about 10 ml. The concentration of the red blood cells was measured by using the spectrophometer at 600 nm. An aliquot of the cells are diluted to a final density OD600 of 24 in 1× PBS, and another to a final density OD600 of 24 in 1× PBS with 0.05% BSA.
The compound NOVO4 is two-fold serially diluted (similar to that described above for mammalian NIH3T3 cytotoxicity assay) as 100× concentration in DMSO, ranging from 0.4 μg/ml to 400 μg/ml. […] After thorough mixing, the A450 was read using a Spectramax Plus Spectrophotometer, using wells with only 1× PBS as blanks […]

Bounds are passed on as bounds.

For the molecule `CC1\C=C/C=C\C=C/C=C\C=C/C(OC2OCC(O)C(O)C2N)C(C)(O)/C=C/C=C\C=C/C=C/C(=O)NC1` (stereo not drawn) [NOVO4], the LD50 in data set [1] was over 16 µg/mL. In data set [2] (MHB versus MHB + 0.05% BSA, depending on the test organisms), the “effect of 0.05% BSA on the MIC” value is given as “either unchanged or lowered sightly”. In data set [2] (MHB versus media supplemented with 10% calf bovine serum), the “effect of calf bovine serum on the MIC” value was “no significant effect”. The molecule also displayed an MTD at 2 days in data set [3] of over 150 mg/kg. Besides, the hemolysis entry in the data set with human red blood cells is recorded as “no significant hemolysis”.

For the molecule Triton X100 [reference compound], the “A450 (hemoglobin released by lysis of red blood cells)” value with human red blood cells came to 0.41.

For the origin of these results see US20110136752A1, “NOVEL ANTIBIOTICS” (priority 2009, published 2011).
